Results published in US20110201564A1, “SUBSTITUTED 7-SULFANYLMETHYL, 7-SULFINYLMETHYL AND 7-SULFONYLMETHYL INDOLES AND USE THEREOF” (BAYER SCHERING PHARMA AKTIENGESELLSCHAFT, priority 2008, published 2011).

Key:
Format in all cases: cell-based
[1] = target: T1, progesterone receptor (PR) (Homo sapiens, UniProt P06401); test: Cellular in vitro assay, GAL4-PR chimera luciferase reporter in CHO K1 cells (selectivity); conditions: antagonism vs progesterone; CHO K1 GAL4-PR LBD luciferase reporter
T1 construct: of the progesterone receptor (PR, amino acids 680-933); expressed in transfected cells; host or cells: CHO K1
T1 sequence (P06401 680-933): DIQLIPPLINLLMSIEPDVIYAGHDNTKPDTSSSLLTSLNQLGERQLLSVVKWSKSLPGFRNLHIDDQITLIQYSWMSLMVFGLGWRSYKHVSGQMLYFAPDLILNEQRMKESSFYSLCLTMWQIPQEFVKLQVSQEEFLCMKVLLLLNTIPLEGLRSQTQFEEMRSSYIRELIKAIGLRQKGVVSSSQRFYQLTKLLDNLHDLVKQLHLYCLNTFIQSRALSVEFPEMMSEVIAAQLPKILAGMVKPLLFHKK
Source text: (§1) 1. Cellular In Vitro Assay to Determine the Inhibitory MR Activity and MR Selectivity Compared with Other Steroid Hormone Receptors
(§2) Antagonists of the human mineralocorticoid receptor (MR) are identified, and the activity of the compounds described herein is quantified with the aid of a recombinant cell line. The cell is originally derived from a hamster ovary epithelial cell (Chinese Hamster Ovary, CHO K1, ATCC: American Type Culture Collection, VA 20108, USA).
(§3) An established chimera system in which the ligand-binding domains of human steroid hormone receptors are fused to the DNA-binding domain of the yeast transcription factor GAL4 is used in this CHO K1 cell line. The GAL4-steroid hormone receptor chimeras produced in this way are cotransfected and stably expressed with a reporter construct in the CHO cells.
(§4) To generate the GAL4-steroid hormone receptor chimeras, the GAL4 DNA-binding domain (amino acids 1-147) from the vector pFC2-dbd (from Stratagene) is cloned with the PCR-amplified ligand-binding domains of the mineralocorticoid receptor (MR, amino acids 734-985), of the progesterone receptor (PR, amino acids 680-933) and of the androgen receptor (AR, amino acids 667-919) into the vector pIRES2 (from Clontech). The reporter construct, which comprises five copies of the GAL4 binding site upstream of a thymidine kinase promoter, leads to expression of firefly luciferase (Photinus pyralis) after activation and binding of the GAL4-steroid hormone receptor chimeras by the respective specific agonists aldosterone (MR), dexamethasone (GR), progesterone (PR) and dihydrotestosterone (AR).
(§5) The MR, PR and AR cells are plated out in medium (Optimem, 2.5% FCS, 2 mM glutamine, 10 mM HEPES) in 96- (or 384- or 1536-)well microtiter plates on the day before the assay and are kept in a cell incubator (96% humidity, 5% v/v CO2, 37° C.). On the day of the assay, the substances to be tested are taken up in the abovementioned medium and added to the cells. About 10 to 30 minutes after addition of the test substances, the respective specific agonists of the steroid hormone receptors are added. After a further incubation time of 5 to 6 hours, the luciferase activity is measured with the aid of a video camera. The measured relative light units as a function of the substance concentration result in a sigmoidal stimulation curve. The IC50 values are calculated with the aid of the GraphPad PRISM computer program (Version 3.02).

[2] = target: T2, human mineralocorticoid receptor (MR) (Homo sapiens, UniProt P08235); test: Cellular in vitro assay, GAL4-MR chimera luciferase reporter in CHO K1 cells (inhibitory MR activity); conditions: antagonism vs aldosterone; CHO K1 GAL4-MR LBD luciferase reporter
T2 construct: expressed in transfected cells; host or cells: CHO K1
T2 sequence (P08235 734-984 limits assumed): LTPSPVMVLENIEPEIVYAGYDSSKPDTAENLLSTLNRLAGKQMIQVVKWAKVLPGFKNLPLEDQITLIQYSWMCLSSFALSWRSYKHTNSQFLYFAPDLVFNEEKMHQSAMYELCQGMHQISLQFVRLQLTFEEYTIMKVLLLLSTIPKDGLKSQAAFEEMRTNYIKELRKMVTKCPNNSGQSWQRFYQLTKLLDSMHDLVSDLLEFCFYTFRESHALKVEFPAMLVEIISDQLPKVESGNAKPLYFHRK
Source text: as §1, §2, §3, §4, §5

androgen receptor (AR) = target: T3, androgen receptor (AR) (Homo sapiens, UniProt P10275); test: Cellular in vitro assay, GAL4-AR chimera luciferase reporter in CHO K1 cells (selectivity); conditions: antagonism vs dihydrotestosterone; CHO K1 GAL4-AR LBD luciferase reporter
T3 construct: of the androgen receptor (AR, amino acids 667-919); expressed in transfected cells; host or cells: CHO K1
T3 sequence (P10275 668-920): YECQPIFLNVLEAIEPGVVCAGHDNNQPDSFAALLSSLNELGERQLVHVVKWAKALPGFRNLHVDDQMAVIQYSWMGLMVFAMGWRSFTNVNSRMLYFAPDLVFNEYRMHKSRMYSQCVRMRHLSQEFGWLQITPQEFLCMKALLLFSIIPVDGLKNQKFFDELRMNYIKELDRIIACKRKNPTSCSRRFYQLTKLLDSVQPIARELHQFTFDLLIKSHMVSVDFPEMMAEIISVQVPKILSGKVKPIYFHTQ
Source text: as §1, §2, §3, §4, §5

Structure (SMILES)	IC50 [1] [µM]	IC50 [2] [µM]	IC50 (androgen receptor (AR)) [µM]
C[S+]([O-])Cc1cccc2c(C(C)(c3ccc(Cl)cc3F)C3CC3)c[nH]c12 (mixture of isomers) [Example 124, 3-[1-(4-Chloro-2-fluorophenyl)-1-cyclopropylethyl]-7-[(methylsulfinyl)methyl]-1H-indole]	8.13	0.12	6.94
CC(c1ccc(Cl)cc1F)(c1c[nH]c2c(CS(C)(=O)=O)cccc12)C1CC1 (single isomer, unassigned) [Example 111-1, 3-[1-(4-Chloro-2-fluorophenyl)-1-cyclopropylethyl]-7-[(methylsulfonyl)methyl]-1H-indole]	4.5	0.03	2.52
CS(=O)(=O)Cc1cccc2c(C(CCCC#N)c3ccc(Cl)cc3)c[nH]c12 (stereo not shown) [Example 70, 5-(4-Chlorophenyl)-5-{7-[(methylsulfonyl)methyl]-1H-indol-3-yl}pentanonitrile]	7.75	0.25	9.66
CC(c1ccc(Cl)cc1)(c1c[nH]c2c(CS(C)(=O)=O)cccc12)C1CC1C#N (stereo not shown) [Example 106, 2-[1-(4-Chlorophenyl)-1-{7-[(methylsulfonyl)methyl]-1H-indol-3-yl}ethyl]cyclopropanecarbonitrile]	11.7	0.04	5.31
CSCc1cccc2c(C(c3ccc(F)cc3)c3ccc(Cl)cc3)c[nH]c12 (stereo not shown) [Example 100, 3-[(4-Chlorophenyl)(4-fluorophenyl)methyl]-7-[(methylsulfanyl)methyl]-1H-indole]	10	0.46	5.24
CS(=O)(=O)Cc1cccc2c(C(c3ccc(F)cc3)c3ccc(Cl)cc3)c[nH]c12 (single isomer, unassigned) [Example 114-2, 3-[(4-Chlorophenyl)(4-fluorophenyl)methyl]-7-[(methylsulfonyl)methyl]-1H-indole]	6.55	0.22	1.23
CCC(CCO)(c1ccc(Cl)cc1)c1c[nH]c2c(C[S+](C)[O-])cccc12 (mixture of isomers) [Example 143, 3-(4-Chlorophenyl)-3-{7-[(methylsulfinyl)methyl]-1H-indol-3-yl}pentan-1-ol]	4.58	0.14	6.44
CSCc1cc(F)cc2c(C(C)(c3ccc(Cl)cc3)C3CC3C#N)c[nH]c12 (stereo not shown) [Example 179, 2-[1-(4-Chlorophenyl)-1-{5-fluoro-7-[(methylsulfanyl)methyl]-1H-indol-3-yl}ethyl]cyclopropanecarbonitrile]	1.93	0.1	2.03
CS(=O)(=O)Cc1cccc2c(C(c3ccc(Cl)cc3Cl)C3CC3(F)F)c[nH]c12 (single isomer, unassigned) [Example 325-1-1, 3-[(2,4-Dichlorophenyl)(2,2-difluorocyclopropyl)methyl]-7-[(methylsulfonyl)methyl]-1H-indole]	7.53	0.012	0.52
C[S+]([O-])Cc1cc(F)cc2c(C(CCC#N)c3ccc(Cl)cc3Cl)c[nH]c12 (mixture of isomers) [Example 82, 4-(2,4-Dichlorophenyl)-4-{5-fluoro-7-[(methylsulfinyl)methyl]-1H-indol-3-yl}butanonitrile]	5.81	0.21	7.53

Further compounds by falling IC50 [1], results first:

IC50 [1] [µM]	IC50 [2] [µM]	IC50 (androgen receptor (AR)) [µM]	Structure (SMILES)
12.8	0.06	7.09	CS(=O)(=O)Cc1cccc2c(C(CCC#N)c3ccc(Cl)cc3Cl)c[nH]c12 (stereo not shown) [Example 62, 4-(2,4-Dichlorophenyl)-4-{7-[(methylsulfonyl)methyl]-1H-indol-3-yl}butanonitrile]
10	0.27	6.6	CCC(CCO)(c1ccc(Cl)cc1)c1c[nH]c2c(CSC)cccc12 (stereo not shown) [Example 140, 3-(4-Chlorophenyl)-3-{7-[(methylsulfanyl)methyl]-1H-indol-3-yl}pentan-1-ol]
10	0.19		C[S+]([O-])Cc1cccc2c(C(c3c(F)cc(Cl)cc3F)C3CC3)c[nH]c12 (mixture of isomers) [Example 238, 3-[(4-Chloro-2,6-difluorophenyl)(cyclopropyl)methyl]-7-[(methylsulfinyl)methyl]-1H-indole]
8.88	0.1	5.74	C[S+]([O-])Cc1cccc2c(C(c3ccc(F)cc3)c3ccc(Cl)cc3F)c[nH]c12 (mixture of isomers) [Example 130, 3-[(4-Chloro-2-fluorophenyl)(4-fluorophenyl)methyl]-7-[(methylsulfinyl)methyl]-1H-indole]
8.56	0.1	5.01	CSCc1cccc2c(C(c3ccc(F)cc3)c3ccc(Cl)cc3F)c[nH]c12 (stereo not shown) [Example 104, 3-[(4-Chloro-2-fluorophenyl)(4-fluorophenyl)methyl]-7-[(methylsulfanyl)methyl]-1H-indole]
8.12	0.042	2.73	CS(=O)(=O)Cc1cccc2c(C3(C4CC4)CCOc4cc(F)cc(F)c43)c[nH]c12 (stereo not shown) [Example 219, 3-(4-Cyclopropyl-5,7-difluoro-3,4-dihydro-2H-chromen-4-yl)-7-[(methylsulfonyl)methyl]-1H-indole]
6.9	0.4		CS(=O)(=O)Cc1cccc2c(C(c3ccc(C(F)(F)F)cc3)C3CC3(F)F)c[nH]c12 (mixture of isomers) [Example 324, 3-{(2,2-Difluorocyclopropyl)[4-(trifluoromethyl)phenyl]methyl}-7-[(methylsulfonyl)methyl]-1H-indole]
4.81	0.21	6.57	C[S+]([O-])Cc1cccc2c(C(c3ccc(Cl)cc3)c3ccc(Cl)cc3)c[nH]c12 (racemic) [Example 296, 3-[Bis(4-chlorophenyl)methyl]-7-[(methylsulfinyl)methyl]-1H-indole]
4.81	0.04	3.76	CS(=O)(=O)Cc1cc(F)cc2c(C(CCC#N)c3ccc(Cl)cc3Cl)c[nH]c12 (stereo not shown) [Example 63, 4-(2,4-Dichlorophenyl)-4-{5-fluoro-7-[(methylsulfonyl)methyl]-1H-indol-3-yl}butanonitrile]
3.91	0.19	5.07	CS(=O)(=O)Cc1cccc2c(C(CCC#N)c3ccc(C(F)(F)F)cc3F)c[nH]c12 (stereo not shown) [Example 68, 4-[2-Fluoro-4-(trifluoromethyl)phenyl]-4-{7-[(methylsulfonyl)methyl]-1H-indol-3-yl}butanonitrile]
2.32	0.05	2.23	Cc1cc(Cl)ccc1C(CCO)c1c[nH]c2c(CS(C)(=O)=O)cccc12 (stereo not shown) [Example 26, 3-(4-Chloro-2-methylphenyl)-3-{7-[(methylsulfonyl)methyl]-1H-indol-3-yl}propan-1-ol]
2.14	0.018	3.39	CCC(CCC#N)(c1ccc(Cl)cc1)c1c[nH]c2c(CSC)cccc12 (stereo not shown) [Example 157, 4-(4-Chlorophenyl)-4-{7-[(methylsulfanyl)methyl]-1H-indol-3-yl}hexanonitrile]
